33 compounds from US20230113944A1, “COMPOSITIONS AND METHODS FOR THE TREATMENT OF NEURODEGENERATIVE DISEASES” (priority 2020, published 2023) can be followed below.

One experiment addresses T1, human nSMase2 (Homo sapiens, UniProt Q9NY59).
T1 construct: expressed in transfected cells; host or cells: HEK293T
T1 sequence (Q9NY59 1-655): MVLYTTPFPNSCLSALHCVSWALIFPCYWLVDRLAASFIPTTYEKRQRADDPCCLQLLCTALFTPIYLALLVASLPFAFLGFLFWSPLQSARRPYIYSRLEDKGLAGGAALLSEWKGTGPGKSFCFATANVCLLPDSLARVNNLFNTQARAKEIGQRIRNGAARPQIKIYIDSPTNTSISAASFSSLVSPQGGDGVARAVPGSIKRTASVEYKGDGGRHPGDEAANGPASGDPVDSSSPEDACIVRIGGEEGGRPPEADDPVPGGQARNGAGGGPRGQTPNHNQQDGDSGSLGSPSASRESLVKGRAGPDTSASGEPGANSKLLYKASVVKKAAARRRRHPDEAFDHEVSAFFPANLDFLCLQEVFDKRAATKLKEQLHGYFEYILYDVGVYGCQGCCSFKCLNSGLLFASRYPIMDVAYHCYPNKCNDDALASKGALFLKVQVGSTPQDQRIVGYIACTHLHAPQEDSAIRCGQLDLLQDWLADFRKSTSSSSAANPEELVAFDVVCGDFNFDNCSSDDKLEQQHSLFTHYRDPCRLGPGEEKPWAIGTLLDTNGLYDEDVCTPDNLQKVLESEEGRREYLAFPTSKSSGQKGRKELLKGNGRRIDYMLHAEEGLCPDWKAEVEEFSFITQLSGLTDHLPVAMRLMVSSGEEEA
In words: biochemical. The experiment is classed as biochemical. How it is done: To evaluate nSMase2 inhibitory activity of tested compounds, cell lysates from HEK293T cells over-expressing human nSMase2 were used as the source of the nSMase2 enzyme. The Amplex Red Sphingomyelinase activity assay was performed according to previously a described protocol^1. Confluent cells were washed with PBS and harvested with lysis buffer [100 mM Tris-HCl pH 7.5, 100 mM sucrose, 100 μM PMSF, 1× protease inhibitor cocktail] using a cell scraper, and then sonicated 3 times on ice for 10 sec and centrifuged at 10,000×g for 10 min at 4° C. to remove remaining cell debris. An initial screening of a compound library was performed using 50 μM compound concentrations. In secondary testing, selected compounds were analyzed at multiple compound concentrations and plotted as a percentage of DMSO control; dose-response curves were generated to determine IC50s using GraphPad Prism software (GraphPad Software, La Jolla Calif.). […] Activity of the enzyme in the presence of the different concentrations of the inhibitors was plotted against substrate concentration and the maximal rate of the enzymatic reaction (Vmax) and Michaelis constant were calculated using GraphPad Prism.

In another experiment the target is T2, Human AChE (Homo sapiens, UniProt P22303).
T2 construct: purchased Sigma
In words: biochemical. How it is done:
This acetylcholinesterase (AChE) assay is based on an Amplex Red assay kit (Thermo Fisher A12217). Human AChE (Sigma) was used. Briefly, 5 μL of compounds at the desired concentration were loaded into wells of a 384-well plate. Then, 5 μl of human AChE (30 mU/mL) was loaded into each well, followed by the addition of 10 μL of the working solution which contains 400 μM Amplex Red reagent, 2 U/mL HRP, 0.2 U/mL choline oxidase, and 100 μM acetylcholine. The reaction was monitored for 60 minutes and read at 530/590 nm. AChE IC50 was determined by plotting AChE activity as a percentage of DMSO control using GraphPad Prism software.

Bounds are passed on as bounds.

T2 sequence (P22303 32-614): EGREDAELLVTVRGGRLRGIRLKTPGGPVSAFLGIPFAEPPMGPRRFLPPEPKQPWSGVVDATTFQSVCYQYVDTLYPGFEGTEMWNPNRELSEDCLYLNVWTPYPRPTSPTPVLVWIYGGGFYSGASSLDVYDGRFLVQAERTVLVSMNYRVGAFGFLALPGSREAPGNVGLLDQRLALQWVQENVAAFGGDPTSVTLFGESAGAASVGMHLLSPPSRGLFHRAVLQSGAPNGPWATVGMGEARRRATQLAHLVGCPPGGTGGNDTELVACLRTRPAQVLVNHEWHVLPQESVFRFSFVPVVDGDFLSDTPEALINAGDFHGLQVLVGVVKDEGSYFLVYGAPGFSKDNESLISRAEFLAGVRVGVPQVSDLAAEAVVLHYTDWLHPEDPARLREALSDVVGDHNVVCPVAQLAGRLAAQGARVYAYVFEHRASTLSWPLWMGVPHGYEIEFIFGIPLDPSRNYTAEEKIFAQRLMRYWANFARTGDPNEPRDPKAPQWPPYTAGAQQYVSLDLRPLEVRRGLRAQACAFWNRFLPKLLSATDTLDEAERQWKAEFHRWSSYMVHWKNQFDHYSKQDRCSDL

As to `COc1ccc2c(n1)[C@]1(C)CCO[C@@H]1N2`, the IC50 against human nSMase2 (IC50 (nSMase2) Groups: A-D) is greater than 50 µM.
Same read-out and setting: the value for `COc1ccc2c(n1)[C@]1(c3ccccc3)CCO[C@@H]1N2` was greater than 50 µM; that for `C=CC[C@@]12CCO[C@@H]1Nc1ccc(OC)nc12` was greater than 50 µM; that for `COc1ccc2c(n1)[C@]1(C)CCCO[C@@H]1N2` was greater than 50 µM.
Consider `COc1ccc2c(n1)[C@]1(C)CCN(S(=O)(=O)c3ccc(C)cc3)[C@@H]1N2`, for which the IC50 against human nSMase2 (IC50 (nSMase2) Groups: A-D) is 10 to 50 µM.
Still for that read-out and setting: the value for `C=CC[C@@]12CCN(S(=O)(=O)c3ccc(C)cc3)[C@@H]1Nc1ccc(OC)nc12` was greater than 50 µM; that for `COC(=O)N1CCC[C@@]2(C)c3nc(OC)ccc3N[C@@H]12` was greater than 50 µM.
The same measure, in the same setting: under `C[C@@]12CCO[C@@H]1Nc1ccc(Br)nc12` stands greater than 50 µM; under `C[C@@]12CCO[C@@H]1Nc1ccc(Cl)nc12`, greater than 50 µM; under `COc1ccnc2c1N[C@H]1OCC[C@@]21C`, greater than 50 µM.
Still for that read-out and setting: under `COc1nccc2c1N[C@H]1OCC[C@@]21C` stands greater than 50 µM; under `COc1cnc2c(c1)[C@]1(C)CCO[C@@H]1N2`, greater than 50 µM.
With `C[C@@]12CCO[C@@H]1Nc1cccnc12`, on human nSMase2 (IC50 (nSMase2) Groups: A-D), the concentration for half-maximal inhibition (IC50) is greater than 50 µM.
Still for that read-out and setting: under `C[C@@]12CCO[C@@H]1Nc1ncccc12` stands greater than 50 µM; under `C[C@@]12CCO[C@@H]1Nc1ccc(OCc3ccccc3)nc12`, greater than 50 µM.
The same measure, in the same setting: the value for `CN1c2ccc(OCc3ccccc3)nc2[C@]2(C)CCO[C@H]12` was greater than 50 µM.
Still for that read-out and setting: the value for `CCN1c2ccc(OCc3ccccc3)nc2[C@]2(C)CCO[C@H]12` was greater than 50 µM.
As to `C[C@@]12CCO[C@@H]1Nc1ccc(O)nc12`, the IC50 against human nSMase2 (IC50 (nSMase2) Groups: A-D) is greater than 50 µM.
Same read-out and setting: the value for `CN1c2ccc(O)nc2[C@]2(C)CCO[C@H]12` was 1 to 10 µM.
As to `CCN1c2ccc(O)nc2[C@]2(C)CCO[C@H]12`, the half-maximal inhibitory concentration (IC50) on human nSMase2 (IC50 (nSMase2) Groups: A-D) fell in the range of 1 to 10 µM.
`CN1c2ccc(OC(=O)Nc3ccccc3)nc2[C@]2(C)CCO[C@H]12` registered an IC50 against human nSMase2 (IC50 (nSMase2) Groups: A-D) of 1 to 10 µM.
Regarding `CN1c2ccc(OC(=O)Nc3ccncc3)cc2[C@]2(C)CCO[C@H]12` (racemic), the IC50 on Human AChE (AChE activity) was greater than 5 µM.
Turning to `CCN(C)C(=O)Oc1ccc2c(c1)[C@]1(C)CCO[C@@H]1N2C` [Compound 16], the 50% inhibitory concentration (IC50) at Human AChE (IC50 AChE, Table 2, unit not in table, μM) is greater than 5 µM.
Take `CN1c2ccc(OC(=O)Nc3ccccc3)cc2[C@]2(C)CCO[C@H]12` [drawing 32]: the IC50 at human nSMase2 (IC50 (nSMase2) Groups: A-D) was 1 to 10 µM; on Human AChE (AChE activity) it was less than 0.5 µM.
For `COc1ccc(NC(=O)Oc2ccc3c(c2)[C@]2(C)CCO[C@@H]2N3C)cc1` [drawing 33], the results for the IC50 at human nSMase2 (IC50 (nSMase2) Groups: A-D) and at Human AChE (AChE activity) were 1 to 10 µM and 2.5 to 5 µM, respectively.
In the same order, the values of `COc1cccc(NC(=O)Oc2ccc3c(c2)[C@]2(C)CCO[C@@H]2N3C)c1` [drawing 34] are 1 to 10 µM and less than 0.5 µM.
`CN1c2ccc(OC(=O)Nc3ccc(OC(F)(F)F)cc3)cc2[C@]2(C)CCO[C@H]12` [drawing 35]: the half-inhibitory concentration (IC50) at human nSMase2 (IC50 (nSMase2) Groups: A-D) was 10 to 50 µM; against Human AChE (AChE activity) it was greater than 5 µM.
Taken in the same sequence, the figures for `CN1c2ccc(OC(=O)NC3CCCCC3)cc2[C@]2(C)CCO[C@H]12` [drawing 36] were 1 to 10 µM and less than 0.5 µM.
As to `Cc1cc(C)cc(NC(=O)Oc2ccc3c(c2)[C@]2(C)CCO[C@@H]2N3C)c1` [drawing 37], the IC50 at human nSMase2 (IC50 (nSMase2) Groups: A-D) is 1 to 10 µM; against Human AChE (AChE activity) it was less than 0.5 µM.
Taken in the same sequence, the figures for `COc1cc(NC(=O)Oc2ccc3c(c2)[C@]2(C)CCO[C@@H]2N3C)cc(OC)c1` [drawing 38] were 1 to 10 µM and less than 0.5 µM.
Taken in the same sequence, the figures for `CC[C@H]1C[C@@]2(C)c3cc(OC(=O)Nc4ccccc4)ccc3N(C)[C@H]2O1` [drawing 42] were 1 to 10 µM and 2.5 to 5 µM.
As for `CCN(C)C(=O)Oc1ccc2c(c1)[C@]1(C)CCO[C@@H]1N2C` [drawing 65], the IC50 on Human AChE (AChE activity) was greater than 5 µM.
At human nSMase2 (nSMase2 IC50), `CN1CC[C@@]2(C)c3cc(OC(=O)Nc4ccccc4)ccc3N(C)[C@@H]12` [phenserine, reference compound] showed an IC50 greater than 50 µM.
